Measured values: US20050042747A1, “Hivgp120-induced bob/gpr15 activation” (priority 2001, published 2005)
Entries after “also recorded” stand apart in the source; their conditions may differ.

Columns and labels:
[1] = test system: microtubules in HT-29 cells; experiment: Microtubule staining (acetylated tubulin) in HT-29 cells; type: cell-based, human; details: pretreatment before gp120
Experimental: To examine the microtubules, HT-29 cells were treated with 10 nM gp120CM235 or 50 pM gp120IIIB, then fixed one hour later in 4 g/100 ml paraformaldehyde PBS, then stained with mouse anti acetylated tubulin (5 μg/ml, Sigma) by a method similar to that given above. Some cells were pretreated with 50 μg/ml antiBob37 overnight, 1 μg/ml pertussis toxin overnight, or 4.6 μg/ml U73122 for one hour before the gp120 was added. Untreated cells were also stained.
Similarly treated undifferentiated HT-29 cells (except that Fluo-4 was not added) were fixed in paraformaldehyde phosphate buffered saline one hour after gp120 treatment.

[2] = test system: gp120-induced calcium signaling in HT-29 cells; experiment: Inhibition of gp120-induced calcium signaling in HT-29 cells; type: cell-based, human; details: pretreatment
Experimental: Calcium studies were done on HT-29 cells and Ghost (3) cells loaded with Fluo 4. The cells were placed in Locke's buffer containing 5 μg/ml Fluo 4 AM ester (Molecular Probes) for 20 to 30 minutes, then in Locke's buffer for an additional 30 minutes before testing. Various concentrations of gp120IIIB (X4 trophic), gp120CM235 (R5 trophic), gp120mN (X4 trophic), gp12093TH975 (nonsyncytium-inducing primary isolate from an asymptomatic subject, trophism undetermined but likely R5), and gp120SF2 (X4R5 trophic), ranging from 10 nM to less than 1 pM, were added in Locke's buffer.^6 The gp120 proteins were obtained from the AIDS Research Reagent Referral Program. Some HT-29 cells were given one of the following pretreatments: 50 μg/ml anti-Bob37 overnight, 1 μg/ml pertussis toxin overnight, or 4.6 μg/ml U73122 for one hour. With the HT-29 cells only, similar tests were also performed with SDF-1, MIP-1α, MIP-1β, and RANTES rather than gp120. The cells were visualized every 4 seconds in a confocal microscope, using 488 nm argon laser excitation and detection filters appropriate for fluorescein-like dyes.
Blocking antibody experiments were done with HT-29 cells (monitoring calcium flux, microtubule loss, or transepithelial resistance), with Ghost (3) Bob cells (monitoring calcium flux) and peripheral blood mononuclear cells (monitoring calcium flux and HIV infection). Specifics of these protocols and the specific results are given herein. […] Antibody concentrations of 40 to 50 micrograms/ml overnight were needed for maximal effect.
For the first two or three days after plating, gp120 induces an immediate (within 4 seconds) calcium flux in undifferentiated HT-29 cells. The cells had previously been loaded with Fluo-4 AM ester (Molecular Probes, Eugene Oreg.) 5 micrograms/ml in the presence of Pleuronic F-127 0.02% in Locke's buffer for 30 minutes, then incubated at room temperature for an additional 30 minutes. Gp120IIIB was added while the cells were on an inverted confocal microscope using a 488 nm argon laser, with detection filters suitable for fluorescein-like dyes. […]

[3] = GalCer-gp120 interactions at the air-water interface (surface pressure); type: binding; details: gp120 5 nM in aqueous subphase
Experimental: A monomolecular film of GalCer was prepared at the air-water interface and gp120 purified from either IIIB (full squares), SEN (open circles) or 89.6 (full circles) isolates was added in the aqueous subphase at a concentration of 5 nM. The kinetics of the surface pressure increase induced by the viral glycoproteins are shown.
Galactosylceramide with an α-hydroxylated fatty acid (referred to as GalCer throughout this study) was either prepared from bovine brain (Sigma) or purified from HT-29-D4 membrane rafts (Fantini et al., 2000a). The surface pressure was measured with a microtensiometer (Kibron Inc., Finland) specially designed for studying protein-lipid interactions (Fantini et al., 2000a). The experiments were carried at 25° C. out in a laboratory equipped with a filtered air supply. A solution of GalCer was prepared extemporaneously in hexane:chloroform:methanol, 11:5:4 (v:v:v) at a concentration of 1 mg/ml. The lipid was carefully spread onto the meniscus of a pure water subphase (800 μl). The proteic ligand (GPR15/Bob peptides or HIV-1 gp120) was injected into the subphase with a 10 μl Hamilton syringe. The surface pressure was continuously measured as a function of time until reaching equilibrium corresponding to the maximal surface presure increase (Δπmax) expressed in mN/m.
In a recent study, it was shown that the interaction between GalCer and gp120 purified from HIV-1(IIIB) was very efficient, whereas gp120s from 89.6 and SEN isolates interacted very weakly (Hammache et al., 1998). The kinetics of this interaction are an important physicochemical parameter allowing the direct comparison of GalCer recognition by various gp120s. In the experiment shown in FIG. 11, gp120 purified from IIIB, SEN, or 89.6 was injected underneath a monomolecular film of GalCer at the air-water interface. The GalCer film mimics the topology of a GalCer raft as it is organized in the external leaflet of the plasma membrane. For this reason, the Langmuir film balance technique is one of the most sensitive and reliable for studying protein-glycolipid interactions (Maggio et al., 1994). […] The surface increase indicates a condensing effect of the gp120 on the lipidic film due to its interaction with GalCer molecules (Hammache et al., 1998). […] At this time however, the level of interaction indicated by the absolute increase of the surface pressure was identical to the one of gp120(IIIB). […] The GalCer-binding capacity of gp120(SEN) was reevaluated and shown to occur much more slowly, but not less efficiently, than of gp120(IIIB).

[4] = test system: apical sodium/glucose cotransporter (SGLT1); experiment: Sodium-dependent glucose transport activity (ΔIsc after α-methylglucose) in HT-29-D4 cells; type: cell-based, human; details: for ΔIsc after α-methylglucose treatment: 50 nM, 3 mM α-methylglucose
Experimental: HT-29-D4 cells were cultured in two-compartment cell culture chambers on a polycarbonate filter (Transwell-clear, Catalog No. 3450, Costar) and analyzed for electrical parameters in modified custom made Ussing chambers as previously reported (Fantini et al., 1989). The chamber was maintained at 37° C. on a hot plate. Apical and basal compartments were filled with electrophysiological medium: 137 mM NaCl, 5.36 mM KCl, 0.4 mM Na2HPO4, 0.8 mM MgCl2, 1.8 mM CaCl2, 20 mM N-2-hydroxyethylpiperazine-N′-2-ethanesulfonic acid (HEPES), pH 7.4. Transepithelial potential difference was measured with Ag electrodes and continuously recorded using a voltage clamp unit (Physiologic Instrument). Bipolar current pulses (20 μA for 2 s, every 30 s) were passed through Ag electrodes to measure the transepithelial resistance (TEER), which was determined according to the Ohm's law (Delézay et al., 1997b). The sodium-dependent electrogenic glucose transport activity was measured as an increase of short-circuit current (ΔIsc) following apical incubation of HT-29-D4 cells with the nonmetabolizable analog of glucose α-methylglucose (Fantini et al., 2000a). Except when indicated, purified gp120s were incubated in the apical compartment of the cell culture chamber (total volume 1.5 ml instead of 10 ml for the basal compartment of the Ussing chamber device unit).
Differentiated HT-29-D4 cells cultured in Transwell chambers were either not treated (control) or treated with 50 nM of purified gp120 (IIIB isolate) for the time indicated in serum-containing culture medium. Transepithelial resistance (TEER) values and short-circuit current variations (ΔIsc) after incubation with 3 mM α-methylglucose (sodium-dependent glucose transport activity) were measured as described in Materials and Methods. The results are expressed as the mean SD of 4 separate experiments.

HT-29-D4 cells [5] = experiment: Cytoskeletal organization and ultrastructure of HT-29-D4 cells (confocal, electron microscopy); type: cell-based, human
Experimental: HT-29-D4 cells grown on glass coverslips were fixed with 4% paraformaldehyde (w/v) in 0.1M phosphate buffer, pH 7.4, for 30 min at room temperature. The cells were then treated with 50 mM […] (15 min), rinsed with phosphate buffer containing 1% bovine serum albumin (BSA), and permeabilized with 0.2% Triton X-100 in phosphate buffer containing 5% BSA (30 min). For α-tubulin staining, coverslips were incubated in a humid atmosphere at 4° C. for 4 hr with the primary antibody (5 μg/ml) in phosphate buffer containing 1% BSA. After washing, the cells were incubated with fluoresecin-conjugated secondary antibodies for 90 min at 4° C. The coverslips were mounted in a Mowiol solution and analyzed by confocal microscopy (Leica TCS inverted laser scanning microscope) as previously reported (Delézay et al., 1997b). […]
The α-tubulin labeling was particularly intense in the medium part of the cells where it formed a complex network of microtubules surrounding the nucleus (a, b). […] Therefore, the presence of such cysts in HT-29-D4 cell monolayer was carefully analyzed by single staining with rhodamine-plalloidin. […]
Next, the ultrastructural changes induced by HIV-1 in differentiated HT-29-D4 cells was analyzed. […] The main ultrastructural change during incubation with virions or gp120 was the presence of intra- and inter-cellular lumina that could be detected in about 5% of the cells. […]

HT-29-D4 cells [6] = experiment: Transepithelial resistance (TEER) of differentiated HT-29-D4 cells; type: cell-based, human; details: for TEER: 50 nM, serum-containing medium, mean SD of 4 experiments; for decrease of transepithelial resistance: after 16 hr

Molecule	inhibition of gp120-induced microtubule loss [1]	inhibition of gp120-induced calcium signaling, in words [2]	interaction with GalCer film, in words [3]	time to equilibrium of surface pressure [3]	ΔIsc after α-methylglucose treatment ([4]; 16 hr)	ΔIsc after α-methylglucose treatment ([4]; 48 hr)	reduction of SGLT1 electrogenic activity ([4]; after 16 hr)	decrease of SGLT1 activity ([4]; after 48 hr)	cells with cysts / lumina (HT-29-D4 cells [5]; 1 hr exposure)	α-tubulin staining (HT-29-D4 cells [5]; 1 hr of incubation)	TEER (HT-29-D4 cells [6]; 16 hr)	TEER (HT-29-D4 cells [6]; 48 hr)	TEER enhancement (relative TEER) (HT-29-D4 cells [6]; 20 min after addition, electrophysiological medium, n=3)	decrease of transepithelial resistance (HT-29-D4 cells [6])	decrease of transepithelial resistance (HT-29-D4 cells [6]; listed as gp120 (IIIB isolate))	decrease of TEER (HT-29-D4 cells [6]; after 48 hr)	time at which TEER had decreased to null values (HT-29-D4 cells [6]; continuous recording, electrophysiological medium)
COc1ccc2c(c1)CC[C@@H]1[C@@H]2CC[C@]2(C)[C@@H](NCCCCCCN3C(=O)C=CC3=O)CC[C@@H]12 [U73122]	inhibited and not	No significant gp120IIIB-induced calcium signaling; also recorded: inhibited	–	–	–	–	–	–	–	–	–	–	–	–	–	–	–
gp120(IIIB): surface envelope glycoprotein purified from HIV-1(IIIB) by lectin affinity chromatography	–	–	exponential increase in the surface pressure	45 min	0.35 ± 0.07 μA · cm^−2	0.29 ± 0.11 μA · cm^−2	70%	80%	about 5%	dramatic decrease	300 ± 108 Q · cm^2	320 ± 267 Q · cm^2	1.60±0.17	greater than 80%	81%	74%	12 h
pertussis toxin	inhibited and not	No significant gp120IIIB-induced calcium signaling; also recorded: inhibited	–	–	–	–	–	–	–	–	–	–	–	–	–	–	–
